Results reported in patent US10953011B2, “Methods of treating virally associated cancers with histone deacetylase inhibitors” (priority 2019, dated 2021).
Like-named read-outs stand apart in the source and are kept apart here.

Tests used:
[1] = molecular target: T1, HDAC8 (Homo sapiens, UniProt Q9BY41); assay: biochemical
T1 sequence (Q9BY41 1-377): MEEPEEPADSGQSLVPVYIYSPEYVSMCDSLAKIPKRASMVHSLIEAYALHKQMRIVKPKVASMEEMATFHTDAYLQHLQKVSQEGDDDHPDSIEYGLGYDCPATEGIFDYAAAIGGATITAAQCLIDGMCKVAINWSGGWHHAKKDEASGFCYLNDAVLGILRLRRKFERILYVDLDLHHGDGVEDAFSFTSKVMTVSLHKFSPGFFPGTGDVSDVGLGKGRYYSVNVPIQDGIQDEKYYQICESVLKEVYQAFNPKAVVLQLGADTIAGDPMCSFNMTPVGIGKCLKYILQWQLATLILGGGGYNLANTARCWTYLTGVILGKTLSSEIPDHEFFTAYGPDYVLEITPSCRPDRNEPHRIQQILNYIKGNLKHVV
Procedure: Briefly, all of the compounds are dissolved in DMSO. A series of dilutions of the compounds were prepared with 10% DMSO in HDAC assay buffer and 5 μl of the dilution was added to a 50 μl reaction so that the final concentration of DMSO is 1% in all of reactions. The compounds were pre-incubated in duplicate at RT for 1 hour in a mixture containing HDAC assay buffer, 5 μg BSA, HDAC enzyme (see Table 7) and a the particular HDACi. After 1 hour, the enzymatic reactions were initiated by the addition of HDAC substrate (BPS Bioscience) to a final concentration of 10 μM or 2 μM. The enzymatic reaction proceeded for 30 minutes at 37° C.
HDAC activity assays were performed in duplicates at each concentration. The fluorescent intensity data were analyzed using the computer software, Graphpad Prism. In the absence of the compound, the fluorescent intensity (Ft) in each data set was defined as 100% activity. In the absence of HDAC, the fluorescent intensity (Fb) in each data set was defined as 0% activity. The percent activity in the presence of each compound was calculated according to the following equation: % activity=(F−Fb)/(Ft−Fb), where F=the fluorescent intensity in the presence of the compound. […]

[2] = molecular target: T2, HDAC 6 (Homo sapiens, UniProt Q9UBN7); conditions: descriptive statement; cited from earlier work
T2 sequence (Q9UBN7 1-1215): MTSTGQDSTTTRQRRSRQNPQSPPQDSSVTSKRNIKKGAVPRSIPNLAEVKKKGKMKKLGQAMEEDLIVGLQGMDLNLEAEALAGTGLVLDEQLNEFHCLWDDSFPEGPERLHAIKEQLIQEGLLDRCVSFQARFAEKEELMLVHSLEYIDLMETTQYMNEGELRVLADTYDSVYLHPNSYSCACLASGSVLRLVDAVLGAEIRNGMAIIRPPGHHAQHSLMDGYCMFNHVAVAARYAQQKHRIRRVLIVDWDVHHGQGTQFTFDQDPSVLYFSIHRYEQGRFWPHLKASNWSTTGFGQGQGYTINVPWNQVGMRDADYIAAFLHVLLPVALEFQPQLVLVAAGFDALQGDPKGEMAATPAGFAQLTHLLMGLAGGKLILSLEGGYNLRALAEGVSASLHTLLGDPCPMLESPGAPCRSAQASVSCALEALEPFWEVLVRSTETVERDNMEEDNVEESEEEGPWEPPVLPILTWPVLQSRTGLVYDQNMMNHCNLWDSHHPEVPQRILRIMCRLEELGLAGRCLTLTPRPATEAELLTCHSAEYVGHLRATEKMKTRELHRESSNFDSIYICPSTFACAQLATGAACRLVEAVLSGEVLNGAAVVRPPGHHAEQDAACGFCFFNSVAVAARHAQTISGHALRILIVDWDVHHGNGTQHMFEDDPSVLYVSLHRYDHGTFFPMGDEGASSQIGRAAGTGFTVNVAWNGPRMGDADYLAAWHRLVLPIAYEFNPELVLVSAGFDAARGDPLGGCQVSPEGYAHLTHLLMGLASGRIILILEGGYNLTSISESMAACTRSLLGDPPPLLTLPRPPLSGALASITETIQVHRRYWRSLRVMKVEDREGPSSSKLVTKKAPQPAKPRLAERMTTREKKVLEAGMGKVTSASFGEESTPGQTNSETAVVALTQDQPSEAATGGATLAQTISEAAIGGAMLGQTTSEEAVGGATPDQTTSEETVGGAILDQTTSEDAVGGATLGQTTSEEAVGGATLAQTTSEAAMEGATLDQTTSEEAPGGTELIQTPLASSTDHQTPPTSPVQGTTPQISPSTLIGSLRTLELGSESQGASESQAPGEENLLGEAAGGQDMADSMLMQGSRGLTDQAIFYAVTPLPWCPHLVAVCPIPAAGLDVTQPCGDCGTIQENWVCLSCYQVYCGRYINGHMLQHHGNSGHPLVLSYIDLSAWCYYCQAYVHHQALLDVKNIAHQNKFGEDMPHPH

[3] = system: Histone 3 acetylation in peripheral blood mononuclear cells; assay: H3 acetylation in PBMC by flow cytometry; format: cell-based, human
Source text: Percentage of cells with H3 acetylation, as determined by flow cytometry, is shown.
Since H3 acetylation is a pharmacodynamic biomarker of Nstat activity, acetylation of H3 was examined in treated cells.

[4] = Single dose pharmacokinetics of oral nanatinostat in patients; format: in vivo, humans; conditions: human, serum; for AUC: read-out: AUC (ng-h/mL), geometric mean; for AUC(0-t): read-out: AUClast (ng-h/mL), geometric mean; for Cmax: read-out: Cmax (ng/mL), geometric mean; for Tmax: read-out: Tmax (h), median (range)
[5] = 5 mg, A = 5 mg VRx-3996 p.o. and 450 mg Valganciclovir p.o., single dose
[6] = 10 mg, B = 10 mg VRx-3996 p.o. and 450 mg Valganciclovir p.o., single dose
[7] = 10 mg, C = 10 mg VRx-3996 p.o. and 900 mg Valganciclovir p.o., single dose

For `O=C(NO)c1cnc(N2C[C@@H]3[C@H](C2)[C@H]3NCc2ccc3cc(F)ccc3n2)nc1` [Nanatinostat, 2-((1R,5S,6s)-6-(((6-fluoroquinolin-2-yl)methyl)amino)-3-azabicyclo[3.1.0]hexan-3-yl)-N-hydroxypyrimidine-5-carboxamide], the IC50 [1] is given as 860 nM, the “Activity against HDAC 6” value [2] is given as “not HDAC 6” and the “Duration of effect on H3 acetylation” value ([3]; PBMC of healthy donors, time-course, doses down to 10 nM, FIG. 3) is given as “long-lasting”. The “Potency in inducing elevated levels of Histone 3 acetylation” value ([3]; PBMC of healthy volunteers, even at 100 nM, FIG. 2) was “much more potent than entinostat”, the AUC [4, 5] was 117 ng·h/mL and the AUC(0-t) [4, 5] was 40.5 ng·h/mL. It also gave a Cmax [4, 5] of 18.5 ng/mL, a half-life ([4]; 5 mg, A = 5 mg VRx-3996 p.o. and 450 mg Valganciclovir p.o., single dose, read-out: Half-Life (h), geometric mean (converted)) of 2.18 h and a Tmax [4, 5] of 3 h. The AUC [4, 6] was 317 ng·h/mL, the AUC(0-t) [4, 6] was 165 ng·h/mL and the Cmax [4, 6] was 62.6 ng/mL. The half-life ([4]; 10 mg, B = 10 mg VRx-3996 p.o. and 450 mg Valganciclovir p.o., single dose, read-out: Half-Life (h), geometric mean (converted)) was 1.17 h, the Tmax [4, 6] was 2 h and the AUC [4, 7] was 322 ng·h/mL. For the same compound, the AUC(0-t) [4, 7] was 227 ng·h/mL, the Cmax [4, 7] was 78.9 ng/mL and the half-life ([4]; 10 mg, C = 10 mg VRx-3996 p.o. and 900 mg Valganciclovir p.o., single dose, read-out: Half-Life (h), geometric mean (converted)) was 1.67 h. It also gave a Tmax [4, 7] of 1 h and a half-life ([4]; humans, oral, summary of Table 6, read-out: T1/2 (converted)) of about 2 h.
